Here are results for 14 compounds from US10167292B2, “Benzodiazepines as bromodomain inhibitors” (Catalyst Therapeutics Pty Ltd, priority 2015, dated 2019).

Test [1] addresses BRD-3 (Domain 1) (Homo sapiens (Human), UniProt Q15059). In words: AlphaScreen BRD binding assay, BRD-3 (Domain 1). The following applies: acetyl-histone H4 peptide 2.5 nM, protein 80 nM. As for the experimental part:
(§1) Biological Characterization Assay Conditions Binding Assay
BRD binding and inhibition was assessed by measuring the interaction of biotinylated acetyl-histone H4 peptide (Anaspec #64989) with the BRD target protein utilising AlphaScreen® technology (Perkin Elmer). In a white 384-well low volume plate (Greiner #784076), 100 nL of compound series in DMSO (0.5% final concentration) was added to the BRD target protein (80 nM final). After 30 min incubation at RT, H4 peptide was added to a final concentration of 2.5 nM. AlphaScreen streptavidin donor beads and AlphaScreen nickel chelate acceptor beads were added to a final concentration of 10 ug/mL each and allowed to incubate in a darkened environment for 1 h at RT. Plates were read on an EnVision plate reader (Perkin Elmer) and IC50's calculated using a four parameter non-linear curve fit.
These conditions are identical for all BRDs screened except BRD2D2 which uses 160 nM protein and 1.25 nM peptide.

For test [2], the system named is HL-60. In words: Cell proliferation assay (CellTiter-Glo), HL-60. The note with it: Homo sapiens, HL-60 cells, 72 h. In kind it is cell-based. As for the experimental part: (§2) The cells were prepared in the required fashion (suspension or adherent). The cells were initially washed once in the culture medium that they would be finally treated in. Following this 10 ml of the test medium was added and the cells. The mixture was pipetted gently several times.
(§3) The cells were counted and then the volume was spun down to the volume necessary for the total number of cells needed. The cells were then resuspended in the appropriate test medium to the desired concentration. In general, the final concentration of non-adherent cells was 2×10^5 cells/ml i.e. 10,000 cells per 50 μ1. Once the desired concentration had been reached, 50 µl of the cells were added to the appropriate wells and the cells were incubated for 72 h at 37° C.
(§4) CellTiter-Glo Luminescent Assay (Kit G7571—See Promega's Instruction Manual for Additional Details):
(§5) Both reagents were pre-warmed to RT. The buffer was thawed in a 37° C. water bath until it had just completely thawed. It was then left on a bench at RT for at least 30 min.
(§6) Following this the substrate and buffer were mixed together. To ensure that the substrate was dissolved, the mixture was inverted several times.
(§7) The cell culture plates were removed from the incubator and were then allowed to adjust to RT for at least 30 min.
(§8) Afterwards 40 μL of the reagent was added to 100 μL of the culture medium. […] The plates were then incubated for 10 min on the bench. The luminescence could then be read using a luminescence plate reader.
(Cellular ATP, detected with luciferase, serves as a proxy for viable cell number.)

For test [3], the system named is MV4; 11. In words: Cell proliferation assay (CellTiter-Glo), MV4;11. It counts as cell-based. The following applies: Homo sapiens, MV4;11 cells, 72 h. As for the experimental part:
as §2, §3, §4, §5, §6, §7, §8

Test [4] addresses BRD-4 (Domain 1) (Homo sapiens (Human), UniProt O60885). In words: AlphaScreen BRD binding assay, BRD-4 (Domain 1). The note with it: acetyl-histone H4 peptide 2.5 nM, protein 80 nM. How it is done: as §1
(§9) AlphaScreen streptavidin donor beads and AlphaScreen nickel chelate acceptor beads were added to a final concentration of 10 ug/mL each and allowed to incubate in a darkened environment for 1 h at RT. Plates were read on an EnVision plate reader (Perkin Elmer) and IC50's calculated using a four parameter non-linear curve fit.
Background: Bead proximity is the source of the signal in Alpha formats.

Test [5] deals with BRD-4 (Domain 2) (Homo sapiens (Human), UniProt O60885). In words: AlphaScreen BRD binding assay, BRD-4 (Domain 2). The following applies: acetyl-histone H4 peptide 2.5 nM, protein 80 nM. How it is done: as §1, §9
In test [6] the target is BRD-2 (Domain 1) (Homo sapiens (Human), UniProt P25440). In words: AlphaScreen BRD binding assay, BRD-2 (Domain 1). The note with it: acetyl-histone H4 peptide 2.5 nM, protein 80 nM. How it is done:
as §1, §9

In test [7] the target is BRD-2 (Domain 2) (Homo sapiens (Human), UniProt P25440). In words: AlphaScreen BRD binding assay, BRD-2 (Domain 2). The note with it: 160 nM protein and 1.25 nM peptide. How it is done:
as §1, §9

Sequence of BRD-3 (Domain 1) (Q15059 34-140): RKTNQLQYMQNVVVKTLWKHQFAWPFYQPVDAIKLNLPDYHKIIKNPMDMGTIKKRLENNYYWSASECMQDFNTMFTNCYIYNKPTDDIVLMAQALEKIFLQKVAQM
Sequence of BRD-2 (Domain 1) (P25440 74-180): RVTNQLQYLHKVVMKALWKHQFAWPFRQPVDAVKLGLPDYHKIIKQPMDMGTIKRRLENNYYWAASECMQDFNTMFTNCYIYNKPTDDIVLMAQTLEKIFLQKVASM
Sequence of BRD-2 (Domain 2) (P25440 344-453): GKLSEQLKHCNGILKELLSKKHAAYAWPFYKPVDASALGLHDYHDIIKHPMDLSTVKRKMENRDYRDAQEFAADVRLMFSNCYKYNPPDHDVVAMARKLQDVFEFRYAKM

As a reminder, the IC50 is the midpoint of a concentration-inhibition curve. Read a low IC50 as greater potency in that assay. `Cc1nnn2c1-c1ccc(C(=O)NC(C)c3ccccc3)cc1N(c1ccc(Cl)cc1)CC2` (stereo in doubt) [Example 35, 7-(4-chlorophenyl)-1-methyl-N—((R)-1-phenylethyl)-6,7-dihydro-5H-benzo[f][1,2,3]triazolo[1,5-d][1,4]diazepine-9-carboxamide]: the IC50 in test [1] is less than 0.1 µM; in test [2], less than 1 µM; in test [3], less than 1 µM.

Take `Cc1nnn2c1-c1ccc(C(=O)NC(C)c3ccccc3)cc1N(c1ccc(Cl)cc1)CC2` (stereo in doubt) [Example 39, 7-(4-chlorophenyl)-1-methyl-N—((S)-1-phenylethyl)-6,7-dihydro-5H-benzo[f][1,2,3]triazolo[1,5-d][1,4]diazepine-9-carboxamide]: the IC50 in test [1] is less than 0.1 µM; in test [2] it was less than 1 µM; in test [3] it was less than 1 µM.

As to `Cc1ccc(-c2ccc3c(c2)N(c2ccc(Cl)cc2)CCn2nnc(C)c2-3)cn1` [Example 7, 7-(4-Chlorophenyl)-1-methyl-9-(6-methylpyridin-3-yl)-6,7-dihydro-5H-benzo[f][1,2,3]triazolo[1,5-d][1,4]diazepine], the IC50 was less than 0.1 µM in test [1]; less than 0.1 µM in test [4]; less than 0.1 µM in test [5]; less than 1 µM in test [2]; less than 1 µM in test [3].

In the case of `Cc1nnn2c1-c1ccc(-c3ccc(N)nc3)cc1N(c1ccc(Cl)cc1)CC2` [Example 8, 5-(7-(4-Chlorophenyl)-1-methyl-6,7-dihydro-5H-benzo[f][1,2,3]triazolo[1,5-d][1,4]diazepin-9-yl)pyridin-2-amine], the IC50 in test [1] is less than 0.1 µM; in test [4] it was less than 0.1 µM; in test [5], less than 0.1 µM; in test [2], less than 1 µM; in test [3], less than 1 µM.

Consider `Cc1nnn2c1-c1ccc(-c3cc[nH]n3)cc1N(c1ccc(Cl)cc1)CC2` [Example 10, 7-(4-Chlorophenyl)-1-methyl-9-(1H-pyrazol-3-yl)-6,7-dihydro-5H-benzo[f][1,2,3]triazolo[1,5-d][1,4]diazepine], for which the IC50 in test [1] is less than 0.1 µM; in test [4], less than 0.1 µM; in test [5], less than 0.1 µM; in test [2], less than 1 µM; in test [3], less than 1 µM.

As for `COC(=O)c1ccc2c(c1)N(c1ccc(Cl)cc1)CCn1nnc(C)c1-2` [Example 31, methyl 7-(4-chlorophenyl)-1-methyl-5,6-dihydrotriazolo[1,5-d][1,4]benzodiazepine-9-carboxylate], the IC50 in test [2] and in test [3] was less than 1 µM in each case.

For the compound `Cc1nnn2c1-c1ccc(C(=O)O)cc1N(c1ccc(Cl)cc1)CC2` [Example 32, 7-(4-chlorophenyl)-1-methyl-5,6-dihydrotriazolo[1,5-d][1,4]benzodiazepine-9-carboxylic acid], the IC50 in test [6] was 0.1 to 1 µM; in test [7], less than 0.1 µM; in test [1], less than 0.1 µM; in test [2] it was more than 5 µM; in test [3] it was less than 1 µM.

`Cc1nnn2c1-c1ccc(C(=O)Nc3ccccc3)cc1N(c1ccc(Cl)cc1)CC2` [Example 36, 7-(4-chlorophenyl)-1-methyl-N-phenyl-6,7-dihydro-5H-benzo[f][1,2,3]triazolo[1,5-d][1,4]diazepine-9-carboxamide]: the IC50 is less than 0.1 µM in test [1], less than 1 µM in test [2] and less than 1 µM in test [3].

As for `Cc1nnn2c1-c1ccc(C(=O)NS(=O)(=O)c3ccccc3)cc1N(c1ccc(Cl)cc1)CC2` [Example 40, 7-(4-chlorophenyl)-1-methyl-N-(phenylsulfonyl)-6,7-dihydro-5H-benzo[f][1,2,3]triazolo[1,5-d][1,4]diazepine-9-carboxamide], the IC50 in test [6] was less than 0.1 µM; in test [7], less than 0.1 µM; in test [1], less than 0.1 µM; in test [4] it was less than 0.1 µM; in test [5], less than 0.1 µM; in test [2], more than 5 µM. For the same compound, the IC50 in test [3] fell in the range of 1 to 5 µM.

Take `Cc1nnn2c1-c1ccc(C(=O)NS(C)(=O)=O)cc1N(c1ccc(Cl)cc1)CC2` [Example 41, 7-(4-chlorophenyl)-1-methyl-N-(methylsulfonyl)-6,7-dihydro-5H-benzo[f][1,2,3]triazolo[1,5-d][1,4]diazepine-9-carboxamide]: the IC50 in test [4] is less than 0.1 µM; in test [5] it was less than 0.1 µM; in test [2] it was 1 to 5 µM; in test [3] it was less than 1 µM.

For the compound `Cc1nnn2c1-c1ccc(C(=O)N[C@@H](C)c3ccc(F)cc3)cc1N(c1ccccc1)CC2` [Example 43], the IC50 in test [6] was less than 0.1 µM; in test [7], less than 0.1 µM; in test [4], less than 0.1 µM; in test [5] it was less than 0.1 µM; in test [2] it was less than 1 µM; in test [3], less than 1 µM.

`Cc1nnn2c1-c1ccc(C(=O)NOCCO)cc1N(c1ccc(Cl)cc1)CC2` [Example 45, 7-(4-Chlorophenyl)-N-(2-hydroxyethoxy)-1-methyl-6,7-dihydro-5H-benzo[f][1,2,3]triazolo[1,5-d][1,4]diazepine-9-carboxamide]: the IC50 in test [6] was less than 0.1 µM; in test [7] it was less than 0.1 µM; in test [4] it was less than 0.1 µM; in test [5], less than 0.1 µM; in test [2], less than 1 µM; in test [3], less than 1 µM.

In the case of `CONC(=O)c1ccc2c(c1)N(c1ccc(Cl)cc1)CCn1nnc(C)c1-2` [Example 46, 7-(4-chlorophenyl)-N-methoxy-1-methyl-6,7-dihydro-5H-benzo[f][1,2,3]triazolo[1,5-d][1,4]diazepine-9-carboxamide], the IC50 in test [6] was less than 0.1 µM; in test [7], less than 0.1 µM; in test [4], less than 0.1 µM; in test [5], less than 0.1 µM; in test [2] it was less than 1 µM; in test [3] it was less than 1 µM.

Take `Cc1nnn2c1-c1ccc(-c3nn[nH]n3)cc1N(c1ccc(Cl)cc1)CC2` [Example 51, 7-(4-chlorophenyl)-1-methyl-9-(2H-tetrazol-5-yl)-6,7-dihydro-5H-benzo[f][1,2,3]triazolo[1,5-d][1,4]diazepine]: the half-inhibitory concentration (IC50) in test [4] was less than 0.1 µM; in test [5], less than 0.1 µM; in test [2] it was more than 5 µM; in test [3], less than 1 µM.
